Patent US6992215B2, “Thiol-based NAALADase inhibitors” (Guildford Pharmaceuticals Inc., priority 2001, dated 2006)
Where “and” joins values, the source holds several entries; their conditions need not be identical. Identical values can stand only once. Peptide text beside a SMILES is read from it.

What was measured:
[1] = target: T1, NAALADase (Homo sapiens, UniProt Q04609); details: NAAG as substrate; cited from earlier work
T1 construct: 100 μL tissue; from tissue; host or cells: unspecified tissue
T1 sequence (Q04609 whole entry): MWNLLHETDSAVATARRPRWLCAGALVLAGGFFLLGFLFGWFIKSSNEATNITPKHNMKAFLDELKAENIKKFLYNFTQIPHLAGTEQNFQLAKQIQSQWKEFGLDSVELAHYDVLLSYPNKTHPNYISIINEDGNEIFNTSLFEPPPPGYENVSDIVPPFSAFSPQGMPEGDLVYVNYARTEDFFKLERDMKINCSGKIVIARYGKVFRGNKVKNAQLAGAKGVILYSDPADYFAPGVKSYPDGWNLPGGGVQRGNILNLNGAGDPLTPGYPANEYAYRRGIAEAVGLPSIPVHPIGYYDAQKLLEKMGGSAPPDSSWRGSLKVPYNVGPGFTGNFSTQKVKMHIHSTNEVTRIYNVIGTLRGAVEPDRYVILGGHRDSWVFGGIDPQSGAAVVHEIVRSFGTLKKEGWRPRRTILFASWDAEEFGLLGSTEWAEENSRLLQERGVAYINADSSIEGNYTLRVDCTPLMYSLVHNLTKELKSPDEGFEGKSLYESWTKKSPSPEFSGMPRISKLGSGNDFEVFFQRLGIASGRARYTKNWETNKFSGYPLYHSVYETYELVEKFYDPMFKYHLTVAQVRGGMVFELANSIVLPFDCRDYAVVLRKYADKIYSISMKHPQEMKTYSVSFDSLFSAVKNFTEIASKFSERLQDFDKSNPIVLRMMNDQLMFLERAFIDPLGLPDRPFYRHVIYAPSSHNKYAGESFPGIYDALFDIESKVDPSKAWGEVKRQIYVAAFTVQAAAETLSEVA

[2] = tested on: STZ-induced diabetic rats; test: Neuropathic pain in STZ model (Hargreaves thermal nociception); format: in vivo, Sprague-Dawley rats; details: 10 mg/kg i.p. daily, treatment started 45 days post-STZ
Description: Male Sprague-Dawley rats (200–225 g) were rendered diabetic by intravenous administration of streptozotocin (“STZ”, 70 mg/kg in phosphate buffered saline). Diabetic animals were divided into five groups: one group receiving Compound A (10 mg/kg or 1 mg/kg), Compound D (10 mg/kg or 1 mg/kg) or vehicle. Another group of animals (non-STZ treated) served as non-diabetic controls. Drug/vehicle treatment was started in diabetic animals 45 days post-STZ administration. STZ-induced diabetic rats were tested for sensitivity to a heat source as soon as blood glucose levels rose to 320 mg/dl or above (30 days post STZ). The rats were then acclimated to a Hargreaves apparatus and thermal nociception was monitored using an infrared heat source directed into the dorsal surface of the hindpaw, and the time taken for the animal to remove its paw noted to the nearest 0.1 seconds (see Hargreaves et al., supra, for detailed experimental method). The intensity of the beam source was adjusted such that the mean latency for control animals (non-STZ treated) was approximately 10 seconds. Each animal was tested 8 times and the mean difference score (between mean non-diabetic control latency and mean diabetic latency) are graphically presented in FIGS. 7A and 7B.

[3] = tested on: BB/W diabetic rats; test: Progression of neuropathic pain and nerve conduction deficits in BB/W model; format: in vivo
Text: Male BB/W rats (BRI, Mass) spontaneously develop a cell mediated autoimmune destruction of pancreatic B cells, resulting in onset of insulin-dependent (Type I) diabetes (Guberski 1994). […] This renders them valuable for experimental trials of new compounds for future treatments of this major disorder. In the present study, Compound D and Compound A were examined for their ability to alter the progression of diabetic neuropathy. […] Another group of non-diabetic rats also receiving vehicle were tested. All animals were continuously monitored for body weight, urine volume, blood sugar and glycated haemoglobin. In the first month of the study, all animals were tested for thermal nociception in a Hargreaves apparatus, weekly. After the first month this was done biweekly and then monthly. The testing consists of directing an infrared heat source onto the dorsal surface of the rat hindpaw and noting the time taken for the animal to remove its paw (see Hargreaves et al., supra, for a description of the experimental method). Each animal was tested 8 times and the mean withdrawal latency noted.
Nerve conduction velocity was also measured every two weeks through the first eight weeks of treatment and every month thereafter through to the six months of treatment (see De Koning et al., Peptides, Vol. 8, No. 3, pp. 415–22 (1987) for a description of the experimental method). […] This was apparent starting at 8 weeks of treatment and persisted to a similar degree through to the six month termination point of the study.

[4] = tested on: STZ-diabetic rats; test: Diabetic neuropathy in STZ model (motor and sensory nerve conduction velocity); format: in vivo
Description: Motor and sensory nerve conduction velocity was also measured in STZ-diabetic animals after 4, 8 and 12 weeks of treatment (see De Koning et al., supra, for a description of the experimental method). Briefly, stimulating needle electrodes were inserted close to the sciatic and tibial nerves with recording electrodes being placed subcutaneously over the distal foot muscles, in anesthetized rats.

[5] = tested on: transgenic G1H mice; test: Effect of NAALADase inhibitors on onset of ALS (FALS transgenic mice); format: in vivo
Description: The effect of NAALADase inhibitors on the onset of ALS was tested using the transgenic mice model of familial amyotrophic lateral sclerosis (FALS), which is detailed in Gurney, M., Annals of Neurology (1996) 39:147–157, and otherwise well known in the art. One month old transgenic G1H mice were treated with daily intraperitoneal injections of a vehicle (50 mM HEPES-buffered saline) or a NAALADase inhibitor (50 mg/kg Compound A). Clinical symptoms of the mice were monitored daily. The onset of clinical disease was scored by examining each mouse for its shaking of limbs when suspended in the air by its tail, cross spread of spinal reflexes, hindlimb paralysis, body weight and wheel running activity.

[6] = tested on: rats with unilateral elevation of intraocular pressure; test: Experimental rat glaucoma (IOP elevation, optic nerve fiber counting); format: in vivo; details: for FIBER NUMBER / PERCENT DIFFERENCE (fiber number between glaucoma and normal eye): 10 mg/kg i.p. daily; for mean percent fiber loss versus saline-treated control groups: at 8 weeks, p=0.05 for Compound A and p=0.02 for Compound B
Description: (§1) All experiments complied with the Association for Research in Vision and Ophthalmology Statement for the Use of Animals in Ophthalmic and Vision Research. 82 male Brown Norway rats (Rattus norvegicus), each weighing approximately 250 gm, were treated using procedures approved by the Animal Care Committee of the Johns Hopkins University School of Medicine. The rats were housed with a 12 hour light/12 hour dark cycle and fed ad libitum.
EXPERIMENTAL GLAUCOMA: Unilateral elevation of intraocular pressure (“IOP”) was produced in 56 rats by microinjection of hypertonic saline into episcleral veins, following procedures described in Morrison, J. et al., IOVS (March 1998) 39:526–531. Beginning on the day of IOP elevation, the rats were treated daily with intraperitoneal injections of either a vehicle (23 rats with 50 mM HEPES-buffered saline) or a NAALADase inhibitor (11 rats with 10 mg/kg of Compound A and 22 rats with 10 mg/kg of Compound B). 11 saline treated rats, 11 Compound A treated rats and 11 Compound B treated rats were sacrificed at 8 weeks, and the remaining rats at 12 weeks, after initial IOP elevation.
(§2) OPTIC NERVE COUNTING: The rats were sacrificed by exsanguination under deep pentobarbital anesthesia. They were perfused through the heart with 2% paraformaldehyde/2% glutaraldehyde in 0.1 M phosphate buffer, pH 7.2, and the eyes with attached optic nerves were removed. A cross-section of the optic nerve from both experimental (glaucoma or transection) and control eyes was removed 1.5 mm posterior to the globe, 1 mm in thickness, and post-fixed in 2% osmium tetroxide in buffer. These were processed into epoxy resin, sectioned at 1 micron and stained with toluidine blue.
(§3) The area of the optic nerve cross-section was measured by outlining its outer border at 10× magnification on an image analysis system (Universal Imaging Corp., Westchester, Pa.) with Synsys digital camera and Metamorph software. Three area measurements were taken and the mean value was determined. To measure the density and fiber diameter distributions, images were captured with a 100× phase contrast objective from 10 different areas of each nerve. These were edited to eliminate non-neural objects and the size of each axon internal to the myelin sheath (its minimum diameter) and the density of axons/square mm were calculated for each image and nerve. The mean density was multiplied by total nerve area to yield fiber number for each nerve. The total fiber number in glaucoma or transection nerves was compared to the normal, fellow eye of each rat to yield a percent loss value. The number of axons counted among the 10 images was an approximately 20% sample of the 80–90,000 axons in normal rat nerves. The person measuring axon number was masked to the protocol conducted on the nerves.

[7] = tested on: rats with unilaterally transected optic nerve; test: Optic nerve transection (optic nerve fiber counting); format: in vivo, Rattus norvegicus; details: for remaining axons relative to the saline-treated rats: 2 weeks after transection; for FIBER NUMBER / PERCENT DIFFERENCE (fiber number between transected eye and normal eye): 10 mg/kg i.p. daily
Description: as §1
OPTIC NERVE TRANSECTION: The optic nerve was transected unilaterally in 26 rats under intraperitoneal pentobarbital anesthesia. The conjunctiva was opened with scissors and the optic nerve exposed by traction on extraocular muscles. The transection was performed with microscissors 5 mm posterior to the globe, with specific attention to avoidance of injury to major ocular blood vessels. Immediately after transection, the retina was examined ophthalmoscopically to assure that the retinal arterial blood supply was not disrupted. The conjunctiva was closed with absorbable suture and the eye dressed with antibiotic ointment. Beginning on the day of transection, the rats were treated daily with intraperitoneal injections of either a vehicle (9 rats with 50 mM HEPES-buffered saline) or a NAALADase inhibitor (8 rats with 10 mg/kg of Compound A and 9 rats with 10 mg/kg of Compound B). 5 saline treated rats, 3 Compound A treated rats and 4 Compound B treated rats were sacrificed at 2 weeks, and the remaining rats at 4 weeks, after transection.
as §2, §3

[8] = tested on: transgenic HD mice of the N171–82Q strain; test: Huntington's disease transgenic mouse model, behavioral testing (rotarod, locomotion); format: in vivo; details: FIG. 42
Description: Transgenic HD mice of the […]-[…] strain and non-transgenic littermates were treated with NAALADase inhibitor Compound B (30 mg/kg) or a vehicle from 10 weeks of age. The mice were placed on a rotating rod (“rotarod”). The length of time at which the mouse fell off the rotarod was recorded as a measure of motor coordination. […] The treatment with Compound B had no effect on the rotarod performance of normal non-HD mice. The total distance traveled by the mice was also recorded as a measure of overall locomotion.

[9] = tested on: transgenic HD mice (N171–82Q); test: Huntington's disease transgenic mouse model, survival; format: in vivo
Description: The effects of Compound B and vehicle on the survival of transgenic HD mice (N171–82Q) were evaluated. Thirteen mice (six male and seven female) were assigned to the Compound B treatment group, and fourteen mice (six male and eight female) were assigned to the vehicle treatment group. Treatment was continued until all the mice died.

[10] = 8 week group, positive value indicates fewer fibers in the glaucoma eye

Row | Compound | FIBER NUMBER ([6]; 8 week group) | PERCENT DIFFERENCE (fiber number between glaucoma and normal eye) [6, 10] | mean percent fiber loss versus saline-treated control groups [6] | remaining axons relative to the saline-treated rats [7] | FIBER NUMBER ([7]; 2 weeks survival) | PERCENT DIFFERENCE (fiber number between transected eye and normal eye) ([7]; 2 weeks survival) | FIBER NUMBER ([7]; 4 weeks survival) | PERCENT DIFFERENCE (fiber number between transected eye and normal eye) ([7]; 4 weeks survival) | also measured
1 | CC(=O)N[C@@H](CC(=O)O)C(=O)N[C@@H](CCC(=O)O)C(=O)O [NAAG, N-acetyl-aspartyl-glutamate] (Ac-Asp-Glu-OH) | – | – | – | – | – | – | – | – | Km [1]: 0.54 µM
2 | O=C(O)CCC(CP(=O)(O)Cc1c(F)c(F)c(F)c(F)c1F)C(=O)O (centres unmarked) [Compound A] | 79156 ± 2436 | −1.82 ± 2.92% | statistically less | 3 times | 26,426 ± 23,025 | 65.3 ± 30.9% | 13,599 ± 7,868 | 82.4 ± 8.9% | hyperalgesic response (withdrawal latency difference score) [2]: completely reversed; nerve conduction velocity deficits versus diabetic vehicle controls ([3]; 10 mg/kg daily, from 8 weeks to six months of treatment, FIG. 12): significantly less severe nerve conduction deficits; withdrawal latency versus diabetic vehicle-treated rats ([3]; 10 mg/kg i.p. daily, starting after 4 weeks and through six months of treatment, FIG. 11): longer withdrawal latencies; motor and sensory nerve conduction velocities ([4]; 10 mg/kg daily for 4, 8 and 12 weeks, FIGS. 9A and 9B): tended to improve (increase); treatment time after which improvement of motor nerve conduction velocity was significant ([4]; 10 mg/kg daily, FIG. 9A): 12 weeks; treatment time after which improvement of sensory nerve conduction velocity was significant ([4]; 10 mg/kg daily, FIG. 9B): 8 weeks; DIFFERENCE (disease onset, Compound A treated versus vehicle treated mice) ([5]; 50 mg/kg daily intraperitoneal injections): 32 and 25; DISEASE ONSET FOR COMPOUND A TREATED MICE ([5]; 50 mg/kg daily intraperitoneal injections from one month of age): 221 days and 166 days
3 | O=C(O)CCC(CCCS)C(=O)O (centres unmarked) [Compound B, 2-(3-sulfanylpropyl)pentanedioic acid] | 80785 ± 2121 | −0.82 ± 2.97% | statistically less | twice | 19,550 ± 11,383 | 75.3 ± 14.8% | 5,162 ± 5,017 | 93.4 ± 6.2% | FIBER NUMBER ([6]; 12 week group): 90504 ± 1718; PERCENT DIFFERENCE (fiber number between glaucoma and normal eye) ([6]; 12 week group): −3.21 ± 2.86%; rotarod performance ([8]; normal non-HD mice, 30 mg/kg): no effect; rotarod performance (time on the rotarod) versus vehicle ([8]; transgenic HD mice, 30 mg/kg from 10 weeks of age): stayed longer on the rotarod; survival time versus vehicle treated counterparts ([9]; female mice, p-value=0.03, FIG. 46): significantly prolonged survival time; difference in median survival time versus vehicle treatment group ([9]; p-value=0.07): not statistically significant; median survival time ([9]; transgenic HD mice, male and female, FIG. 44): 184 days
